From ChEMBL document CHEMBL3425401, “Identification of 8-aminoadenosine derivatives as a new class of human concentrative nucleoside transporter 2 inhibitors” (ACS Med Chem Lett, 2015)

Legend:
[1] = target: T1, Sodium/nucleoside cotransporter 2 (Homo sapiens, UniProt O43868); assay: Inhibition of human CNT2 expressed in COS7 cells assessed as reduction in sodium-dependent [14C]-inosine uptake in presence of Na+ by liquid scintillation counting method; type: cell-based, COS-7
T1 sequence (O43868 whole entry): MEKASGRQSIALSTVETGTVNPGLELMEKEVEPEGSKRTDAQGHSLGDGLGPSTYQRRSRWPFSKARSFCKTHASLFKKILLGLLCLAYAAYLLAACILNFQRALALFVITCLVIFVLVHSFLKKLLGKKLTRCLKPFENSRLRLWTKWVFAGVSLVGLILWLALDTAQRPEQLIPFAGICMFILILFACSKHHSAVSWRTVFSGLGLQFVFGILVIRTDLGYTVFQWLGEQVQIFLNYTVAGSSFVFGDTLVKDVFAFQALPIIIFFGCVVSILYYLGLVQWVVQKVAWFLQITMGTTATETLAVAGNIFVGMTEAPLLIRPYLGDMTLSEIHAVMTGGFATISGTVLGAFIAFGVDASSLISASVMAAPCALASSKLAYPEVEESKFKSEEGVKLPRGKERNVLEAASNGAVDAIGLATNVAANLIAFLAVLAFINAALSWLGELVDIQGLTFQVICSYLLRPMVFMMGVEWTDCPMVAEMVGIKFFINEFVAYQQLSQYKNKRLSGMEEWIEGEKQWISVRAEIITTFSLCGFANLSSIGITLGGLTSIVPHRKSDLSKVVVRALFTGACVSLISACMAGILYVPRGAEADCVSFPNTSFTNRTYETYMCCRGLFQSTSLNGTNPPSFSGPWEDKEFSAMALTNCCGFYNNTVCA

[2] = target: T2, Sodium/nucleoside cotransporter 2 (Homo sapiens) (UniProt O43868); assay: Inhibition of human CNT2 expressed in COS7 cells assessed as reduction in sodium-dependent [14C]-inosine uptake at 1000 uM in presence of Na+ by liquid scintillation counting method; type: cell-based; conditions: COS-7
T2 sequence (whole entry): T1 sequence (O43868 whole entry)

[3] = target: T2, Sodium/nucleoside cotransporter 2 (Homo sapiens); assay: Inhibition of human CNT2 expressed in COS7 cells assessed as reduction in sodium-dependent [14C]-inosine uptake at 100 uM in presence of Na+ by liquid scintillation counting method; type: cell-based; conditions: COS-7
[4] = target: T2, Sodium/nucleoside cotransporter 2 (Homo sapiens); assay: Potency index, ratio of IC50 for 7,8,3'-trihydroxyflavone to IC50 for test compound against human CNT2 expressed in COS7 cells by sodium-dependent [14C]-inosine uptake assay; type: cell-based; conditions: COS-7
[5] = target: T2, Sodium/nucleoside cotransporter 2 (Homo sapiens); assay: Potency index, ratio of IC50 for phlorizin to IC50 for test compound against human CNT2 expressed in COS7 cells by sodium-dependent [14C]-inosine uptake assay; type: cell-based; conditions: COS-7
[6] = target: T2, Sodium/nucleoside cotransporter 2 (Homo sapiens); assay: Potency index, ratio of IC50 for 2'-deoxy-5-fluorouridine to IC50 for test compound against human CNT2 expressed in COS7 cells by sodium-dependent [14C]-inosine uptake assay; type: cell-based; conditions: COS-7

Compound | IC50 [1] [µM] | inhibition [3] [%] | also measured
CCC(=O)OC[C@H]1O[C@@H](n2cnc3c(N)ncnc32)[C@H](O)[C@@H]1O | > 100 |  | 
Nc1ncnc2c1nc(NCc1ccccc1Cl)n2[C@@H]1O[C@H](CO)[C@@H](O)[C@H]1O | 5.7 |  | 
COc1ccc(CNc2nc3c(N)ncnc3n2[C@@H]2O[C@H](CO)[C@@H](O)[C@H]2O)cc1 | 36 |  | 
CCCCCOC(=O)OC[C@H]1O[C@@H](n2cnc3c(N)ncnc32)[C@H](O)[C@@H]1O | > 100 |  | 
CCOC(=O)OC[C@H]1O[C@@H](n2cnc3c(N)ncnc32)[C@H](O)[C@@H]1O | > 100 |  | 
O=c1cc(-c2cccc(O)c2)oc2c(O)c(O)ccc12 | > 1000 | < 5 | inhibition [2]: < 50%
COc1cccc(CNc2nc3c(N)ncnc3n2[C@@H]2O[C@H](CO)[C@@H](O)[C@H]2O)c1 | 13 |  | 
Nc1ncnc2c1nc(NCc1ccc3ccccc3c1)n2[C@@H]1O[C@H](CO)[C@@H](O)[C@H]1O | 5.3 |  | 
CNC(=O)OC[C@H]1O[C@@H](n2cnc3c(N)ncnc32)[C@H](O)[C@@H]1O | > 100 |  | 
COC(=O)OC[C@H]1O[C@@H](n2cnc3c(N)ncnc32)[C@H](O)[C@@H]1O | > 100 |  | 
Nc1ncnc2c1nc(NCc1ccccc1-c1ccccc1)n2[C@@H]1O[C@H](CO)[C@@H](O)[C@H]1O | > 100 |  | 
Cc1cccc(CNc2nc3c(N)ncnc3n2[C@@H]2O[C@H](CO)[C@@H](O)[C@H]2O)c1 | 19 |  | 
Nc1ncnc2c1nc(NCc1cccc(-c3ccccc3)c1)n2[C@@H]1O[C@H](CO)[C@@H](O)[C@H]1O | 21 |  | 
C[C@H](Nc1nc2c(N)ncnc2n1[C@@H]1O[C@H](CO)[C@@H](O)[C@H]1O)c1ccccc1 |  | < 5 | 
Nc1ncnc2c1ncn2[C@@H]1O[C@H](COC(=O)Cc2ccccc2)[C@@H](O)[C@H]1O | > 100 |  | 
O=c1[nH]c(=O)n([C@H]2C[C@H](O)[C@@H](CO)O2)cc1F [FLOXURIDINE] | > 1000 | 17 | inhibition [2]: < 50%
CC(=O)OC[C@H]1O[C@@H](n2cnc3c(N)ncnc32)[C@H](O)[C@@H]1O | > 100 |  | 
CCCCCC(=O)OC[C@H]1O[C@@H](n2cnc3c(N)ncnc32)[C@H](O)[C@@H]1O | > 100 |  | 
Nc1ncnc2c1nc(NCc1ccc(-c3ccccc3)cc1)n2[C@@H]1O[C@H](CO)[C@@H](O)[C@H]1O | 0.64 |  | Ratio IC50 [4]: 1500; Ratio IC50 [5]: 1500; Ratio IC50 [6]: 1500
Nc1ncnc2c1nc(CCc1ccccc1)n2[C@@H]1O[C@H](CO)[C@@H](O)[C@H]1O |  | < 5 | 

Compound | IC50 [1] [µM] | inhibition [3] [%] | also measured
Nc1ncnc2c1nc(NCCCc1ccccc1)n2[C@@H]1O[C@H](CO)[C@@H](O)[C@H]1O | 536 | 26 | 
CCNC(=O)OC[C@H]1O[C@@H](n2cnc3c(N)ncnc32)[C@H](O)[C@@H]1O | > 100 |  | 
Nc1ncnc2c1nc(NCc1cccc3ccccc13)n2[C@@H]1O[C@H](CO)[C@@H](O)[C@H]1O | 5.7 |  | 
CN(Cc1ccccc1)c1nc2c(N)ncnc2n1[C@@H]1O[C@H](CO)[C@@H](O)[C@H]1O |  | < 5 | 
Nc1ncnc2c1nc(NCCc1ccccc1)n2[C@@H]1O[C@H](CO)[C@@H](O)[C@H]1O | 233 | 39 | 
C[C@@H](Nc1nc2c(N)ncnc2n1[C@@H]1O[C@H](CO)[C@@H](O)[C@H]1O)c1ccccc1 |  | < 5 | 
Nc1ncnc2c1nc(NCc1ccccc1)n2[C@@H]1O[C@H](CO)[C@@H](O)[C@H]1O | 52 | 58 | 
Nc1ncnc2c1ncn2[C@@H]1O[C@H](COC(=O)NCc2ccccc2)[C@@H](O)[C@H]1O | > 100 |  | 
COc1ccccc1CNc1nc2c(N)ncnc2n1[C@@H]1O[C@H](CO)[C@@H](O)[C@H]1O | > 100 |  | 
Nc1ncnc2c1nc(SCc1ccccc1)n2[C@@H]1O[C@H](CO)[C@@H](O)[C@H]1O |  | < 5 | 
Nc1ncnc2c1nc(NCc1ccc(Cl)cc1)n2[C@@H]1O[C@H](CO)[C@@H](O)[C@H]1O | 11 |  | 
O=C(CCc1ccc(O)cc1)c1c(O)cc(O)cc1O[C@@H]1O[C@H](CO)[C@@H](O)[C@H](O)[C@H]1O [PHLORIZIN] | > 1000 | 14 | inhibition [2]: < 50%
Nc1ncnc2c1nc(Nc1ccccc1)n2[C@@H]1O[C@H](CO)[C@@H](O)[C@H]1O | 289 | 36 | 
Cc1ccccc1CNc1nc2c(N)ncnc2n1[C@@H]1O[C@H](CO)[C@@H](O)[C@H]1O | 65 |  | 
CCCCCNC(=O)OC[C@H]1O[C@@H](n2cnc3c(N)ncnc32)[C@H](O)[C@@H]1O | > 100 |  | 
Cc1ccc(CNc2nc3c(N)ncnc3n2[C@@H]2O[C@H](CO)[C@@H](O)[C@H]2O)cc1 | 11 |  | 
Nc1ncnc2c1nc(NCc1cccc(Cl)c1)n2[C@@H]1O[C@H](CO)[C@@H](O)[C@H]1O | 5.4 |  | 
Nc1ncnc2c1nc(OCc1ccccc1)n2[C@@H]1O[C@H](CO)[C@@H](O)[C@H]1O |  | < 5 | 
Nc1ncnc2c1ncn2[C@@H]1O[C@H](COC(=O)OCc2ccccc2)[C@@H](O)[C@H]1O | > 100 |  | 
